Measurements published in US20190015551A1, “CONSTRUCT FOR PREVENTING IMMUNOLOGICAL REJECTION GENERATED WHEN USED IN TRANSPLANTS, AND METHOD FOR USING COLLAGEN IN A GEL STATE, IN THE FORM OF DRY LYOPHILISED SPONGY MOULDINGS AND 3D MATRICES” (ADG I+D SPA, priority 2015, published 2019).

Tested on: bacterial colonies in pig tissue
Assay: Microbiological control of pig tissue treated with disinfectants (CFU/plate)
Type: cell-based
Excerpt: FIG. 3. It is shown the microbiological control of tissue for obtaining the collagen product, by means of the methodology described in the present application. It corresponds to CFU/plate in pig tissue treated with povidone-iodine or peracetic acid. […] Abbreviations: PY—povidone-iodine, PA—Peracetic Acid, CFU—colony forming units, CC—work bell control.
FIG. 4. It is shown results of microbiological control. The photographs of the culture plates show the initial growth of bacterial colonies at the beginning (time 0), and the decrease of CFU at 5 minutes, 30 minutes, 1 hour and 3 hours of exposure to the disinfectant; in the top panel povidone-iodine (PY) and in the lower panel peracetic acid (PA).
• i) Sterilization and freezing of the tissue: Pig's head cheeks skin from 175 to 190 days of age were used. Which was immersed for 3.5 hours in a commercial solution of povidone-iodine 10% (Brand: Centrovet) and brushed on both sides every 30 minutes, in a sterile environment, and rinsed with ultra-pure quality water. […] The disinfected tissue is bagged and sealed to freeze at −80° C. (±2.0° C.) in ultra freezer (Brand: Thermoline).

CC(=O)OO [PA, peracetic acid]
formation of bacterial colonies on culture plates (3 hours of exposure to the disinfectant): the presence of a colony still persists
UCF/plate in pig tissue treated with PY or PA (exposition time 0 min): 132 UCF/plate
UCF/plate in pig tissue treated with PY or PA (exposition time 5 min): 2 UCF/plate
UCF/plate in pig tissue treated with PY or PA (exposition time 30 min): 3 UCF/plate
UCF/plate in pig tissue treated with PY or PA (exposition time 1 hour): 7 UCF/plate
UCF/plate in pig tissue treated with PY or PA (exposition time 3 hours): 1 UCF/plate
